Literature values in patent publication US6955766B2, “Method for reducing harmful organisms in currents of water” (priority 1999, dated 2005).

Tested on: zebra mussels
Conditions: batchwise treatment of water

In the case of CC(=O)OO [peroxyacetic acid], the “concentration necessary to achieve an acceptable mortality rate of the mussels in a sufficiently short time” value is listed as ≥ 10 mg/L.
